In paper PMC5467183 (ACS Medicinal Chemistry Letters, 2017):

How the values were obtained:
Rat pharmacokinetics = assay type: in vivo
[1] = system: CD86 surface expression on B cells; experiment: cells; conditions: Mus musculus, B-cell, read-out: CD86 IC50
physchem = conditions: pH 7.4, Sol. (kinetic solubility)
[2] = MDCK, A to B
[3] = human hepatocytes
[4] = rat hepatocytes
[5] = system: collagen-induced arthritis (CIA) model in Lewis rat; conditions: 0.05 mg/kg daily, days 10–17

Structure (SMILES)	Perm. [2]	HHep (projected hepatic clearance) [3]	RHep (projected hepatic clearance) [4]	also measured
Cn1cc(-c2cccc(N3CCc4c(sc5c4CC(C)(C)C5)C3=O)c2CO)cc(Nc2ccncn2)c1=O [compound 7]	–	–	–	Rat CL (total clearance) (Rat pharmacokinetics; 1 mg/kg i.v.): 16 mL/min/kg; clearance (Rat pharmacokinetics; in vivo, iv, 1 mg/kg): 16 mL/min/kg; bioavailability (Rat pharmacokinetics; in vivo, po, 5 mg/kg, pH 3): 37%
Cn1cc(-c2cccc(N3CCc4cc(C(C)(C)C)ccc4C3=O)c2CO)cc(Nc2ccncn2)c1=O [compound 9]	–	–	–	IC50 [1]: < 100 nM; solubility kinetic (physchem): < 2 µM
CN1CCN(c2ccc(Nc3cc(-c4cccc(N5CCn6c(cc7c6CCCC7)C5=O)c4CO)cn(C)c3=O)nc2)CC1 [compound 17]	MOD (MOD: 1–10 (10^–6 cm/s))	10	12	–
Cn1cc(-c2cccc(N3CCn4c(cc5c4CCCC5)C3=O)c2CO)cc(Nc2ccc(N3CCN(C4COC4)CC3)cn2)c1=O [compound 18]	MOD (MOD: 1–10 (10^–6 cm/s))	< 6	< 10	–
CN1CCN(c2ccc(Nc3cc(-c4cc(F)cc(N5CCn6c(cc7c6CCCC7)C5=O)c4CO)cn(C)c3=O)nc2)CC1 [compound 19]	MOD (MOD: 1–10 (10^–6 cm/s))	< 6.2	< 10.1	–
Cn1cc(-c2cc(F)cc(N3CCn4c(cc5c4CCCC5)C3=O)c2CO)cc(Nc2ccc(N3CCN(C4COC4)CC3)cn2)c1=O [compound 20]	HIGH (HIGH: >10 (10^–6 cm/s))	< 6	< 10	–
C[C@@H]1C[C@H]2[C@@H]3CCC4=CC(=O)C=C[C@]4(C)[C@@]3(F)[C@@H](O)C[C@]2(C)[C@@]1(O)C(=O)CO [dexamethasone]	–	–	–	ankle diameter [5]: significantly (by ANOVA) reduced toward normal
